Experimental data reported in ChEMBL document CHEMBL1123372, “6,7-Dichloro-1-(3,4,5-trimethoxybenzyl)-1,2,3,4-tetrahydroisoquinoline . A structurally novel beta-adrenergic receptor blocking agent” (J Med Chem, 1986).

What was measured:
Format in all cases: physicochemical
[1] = Compound was evaluated for pKa by titration of the compounds in 1:2 methyl alcohol and water; settings: read-out: pKa app
[2] = Partition coefficient (logP); settings: octanol/water
[3] = Compound was evaluated for distribution coefficient; settings: octanol/water
[4] = Compound was evaluated for pKa by titration of the compounds in 1:2 methyl alcohol and water.; settings: read-out: pKa app

SMILES | pKa [1] | logP [2] | logD [3] | pKa [4]
CC(C)NCC(O)c1ccc(Cl)c(Cl)c1 (stereo unspecified) [DICHLOROISOPROTERENOL] | 8.7 | 2.55 | 1.26 | –
COc1cc(C[C@@H]2NCCc3cc(O)c(O)cc32)cc(OC)c1OC [TRETOQUINOL] | – | 2.23 | 1.79 | 7.6
